In patent publication EP3246028A1, “QUINOLINE COMPOUNDS FOR INCREASING INSULINE RELEASE” (Max-Planck-Gesellschaft zur Förderung der Wissenschaften …, priority 2016, dated 2017):
Entries after “also recorded” stand apart in the source; their conditions may differ.

Assays:
[1] = system: RIN-5AH insulinoma beta cell line; assay: Insulin secretion (insulin ELISA of supernatants); format: cell-based; conditions: for activation at 5 µM: RIN-5AH cells, treated in medium for 2 hours, read-out: AV_INSULIN (percent increase in insulin secretion over a DMSO control)
Procedure: Culture medium and supplements were purchased from Life Technologies. The RIN-5AH insulinoma beta cell line was cultured in RPMI 1640 supplemented with 10% FBS, 2 mM glutamine. All culture media contained 1x penicillin-streptomycin. Cells were grown on 15 cm culture plates at 37°C under 5% CO2 in high humidity atmosphere.
To determine the insulin level from the supernatants insulin ELISA kits from Millipore or Mercodia were used. RIN-5AH cells were seeded in 96 well or 12 well plates and grown overnight. RIN-5AH cells never reached more than 80% confluency before treatment. Cells were washed once with PBS before treatment. Cells were treated in medium for 2 hours and with 5 µM of insulin secretagogue according to the present invention, if not otherwise indicated. After treatment 100ul of supernatant was taken. Samples were assayed immediately or stored at -20°C until measurement. Dilutions were made if necessary and ELISA was subsequently performed according to the user's manual. Insulin secretion was normalized to cell number by MTT assay or to total protein amount by BCA assay (ThermoFisher Scientific, 23225). Plates were read on BioTrek Elx800 absorbance reader at 450 nm.
RIN-5AH beta cells were treated with 5 µM compound 12 or 50 µM quinidine or chloroquine according to the above described protocol (Example 1).

RIN-5AH cells = assay: Calcium influx by FACS analysis (Fluo-4 AM fluorescence); format: cell-based; conditions: extracellular Ca2+ present, compound 12 at 5 µM, Figure 2
Procedure: Calcium influx was measured by FACS analysis, similar to protocols previously described (Brewis, I. A., journal of andrology 21, 238-249, doi:10.1002/j.1939-4640.2000.tb02101.x (2000); Vines, A., Cytometry Part A 77A, 1091-1097, doi:10.1002/cyto.a.20974 (2010); Schepers, E., Journal of Immunological Methods 348, 74-82, doi:http://dx.doi.org/10.1016/j.jim.2009.07.002 (2009)).
RIN-5AH cells (30,000 cells per well) were plated in 12 well plates and incubated overnight at 37°C and 5% CO2. Cells were stained with Fluo-4 AM (molecular probes, F14201) by using a 3µM stock solution prepared in HBSS with Ca2+ and Mg2+ (HBSS++) and with addition of a final amount of 0.02% Pluronic-F127 (molecular probes, P6867). Cells were incubated with 600ul of the dye/well for 1h at 37°C, in 5% CO2. They were washed 2x with Ca2+ and Mg2+ free HBSS (HBSS--) (Gibco, 14170) before moving to the next step of the protocol (see below).
Cells were trypsinized for three minutes at 37°C and 5% CO2. The cell suspension was then diluted by adding 1ml HBSS-- / well and centrifuged for 3 minutes at 1200 RPM. Cells were resuspended in 1 mL of HBSS++ or HBSS-- before starting the measurement. Base fluorescent signal was recorded for 30 seconds followed by treatment with the various compounds by quickly adding the compounds to the FACS analysis tubes, while acquisition was not interrupted (gaps). […] Samples were measured continuously for the desired time and all measurements were completed within 40 minutes. Unstained cells and stained cells in external buffer without Ca2+ and Mg2+ (HBSS--) were used as negative controls for the treatments. Data were acquired on BD-FACSCalibur and the visualizations were prepared by FlowJo software.

## N#Cc1cc(-c2cccc(N)c2)c2ccc(F)cc2n1 [Compound 1, 4-(3-aminophenyl)-7-fluoro-quinoline-2-carbonitrile]
[1]
  activation at 5 µM: 151%

## CN(C)C(=O)c1cc(Nc2cc(C#N)nc3c(Br)cccc23)c(Cl)cc1Cl [Compound 2, 5-[(8-bromo-2-cyano-4-quinolyl)amino]-2,4-dichloro-N,N-dimethyl-benzamide]
[1]
  activation at 5 µM: 125%

## COc1cc(Nc2cc(C#N)nc3c(Br)cccc23)c(Cl)cc1Cl [Compound 3, 8-bromo-4-(2,4-dichloro-5-methoxy-anilino)quinoline-2-carbonitrile]
[1]
  activation at 5 µM: 116%

## COc1c(F)ccc2c(Nc3ccc(Cl)cc3C(F)(F)F)cc(C#N)nc12 [Compound 4, 4-[4-chloro-2-(trifluoromethyl)anilino]-7-fluoro-8-methoxy-quinoline-2-carbonitrile]
[1]
  activation at 5 µM: 101%
RIN-5AH cells
  divalent calcium cation influx (Fluo-4 AM fluorescence by FACS): induced divalent calcium cation influx

## N#Cc1cc(Nc2ccc(Cl)cc2C(F)(F)F)c2cc(F)ccc2n1 [Compound 5, 4-[4-chloro-2-(trifluoromethyl)anilino]-6-fluoro-quinoline-2-carbonitrile]
[1]
  activation at 5 µM: 96%
RIN-5AH cells
  divalent calcium cation influx (Fluo-4 AM fluorescence by FACS): induced divalent calcium cation influx

## N#Cc1cc(-c2cccc(NS(=O)(=O)c3c(F)cccc3F)c2)c2ccc(F)cc2n1 [Compound 6, N-[3-(2-cyano-7-fluoro-4-quinolyl)phenyl]-2,6-difluoro-benzenesulfonamide]
[1]
  activation at 5 µM: 94%

## N#Cc1cc(Nc2ccc(Cl)cc2C(F)(F)F)c2cccc(F)c2n1 [Compound 7, 4-[4-chloro-2-(trifluoromethyl)anilino]-8-fluoro-quinoline-2-carbonitrile]
[1]
  activation at 5 µM: 93%
RIN-5AH cells
  divalent calcium cation influx (Fluo-4 AM fluorescence by FACS): induced divalent calcium cation influx; also recorded: induced Ca2+ influx

## COc1c(F)ccc2c(Nc3c(Cl)cccc3Cl)cc(C#N)nc12 [Compound 8, 4-(2,6-dichloroanilino)-7-fluoro-8-methoxy-quinoline-2-carbonitrile]
[1]
  activation at 5 µM: 93%
RIN-5AH cells
  divalent calcium cation influx (Fluo-4 AM fluorescence by FACS): induced divalent calcium cation influx; also recorded: induced Ca2+ influx

## COc1cc2c(Oc3ccc(NS(=O)(=O)c4cccc(-c5ccccc5)c4)cc3F)ccnc2cc1OCCCN [Compound 9, N-[4-[[7-(3-aminopropoxy)-6-methoxy-4-quinolyl]oxy]-3-fluoro-phenyl]-3-phenyl-benzenesulfonamide]
[1]
  activation at 5 µM: 90%

## COc1cc(Nc2cc(C#N)nc3ccc(F)cc23)c(Cl)cc1Cl [Compound 10, 4-(2,4-dichloro-5-methoxy-anilino)-6-fluoro-quinoline-2-carbonitrile]
[1]
  activation at 5 µM: 89%

## N#Cc1cc(-c2cccc(NC(=O)c3cccc(C(F)(F)F)c3)c2)c2ccc(F)cc2n1 [Compound 11, N-[3-(2-cyano-7-fluoro-4-quinolyl)phenyl]-3-(trifluoromethyl)benzamide]
[1]
  activation at 5 µM: 86%

## COc1cc2c(Nc3ccc(Cl)cc3C(F)(F)F)cc(C#N)nc2cc1F [Compound 13, 4-[4-chloro-2-(trifluoromethyl)anilino]-7-fluoro-6-methoxy-quinoline-2-carbonitrile]
[1]
  activation at 5 µM: 83%
RIN-5AH cells
  divalent calcium cation influx (Fluo-4 AM fluorescence by FACS): induced divalent calcium cation influx; also recorded: induced Ca2+ influx

## N#Cc1cc(Nc2ccc(F)c(Cl)c2)c2cc(Cl)cc(Cl)c2n1 [Compound 14, 6,8-dichloro-4-(3-chloro-4-fluoro-anilino)quinoline-2-carbonitrile]
[1]
  activation at 5 µM: 78%

## COc1ccc2nc(C#N)cc(Nc3cc(OC)c(Cl)cc3Cl)c2c1 [Compound 15, 4-(2,4-dichloro-5-methoxy-anilino)-6-methoxy-quinoline-2-carbonitrile]
[1]
  activation at 5 µM: 78%

## COc1c(F)ccc2c(Nc3ccc(C)c(C)c3)cc(C#N)nc12 [Compound 16, 4-(3,4-dimethylanilino)-7-fluoro-8-methoxy-quinoline-2-carbonitrile]
[1]
  activation at 5 µM: 78%

## COc1cc(Nc2c(C#N)cnc3cc(OCCCN)c(OC)cc23)c(Cl)cc1Cl [Compound 17, 7-(3-aminopropoxy)-4-(2,4-dichloro-5-methoxy-anilino)-6-methoxy-quinoline-3-carbonitrile]
[1]
  activation at 5 µM: 74%

## N#Cc1cc(Nc2c(Cl)cccc2Cl)c2cccc(F)c2n1 [Compound 18, 4-(2,6-dichloroanilino)-8-fluoro-quinoline-2-carbonitrile]
[1]
  activation at 5 µM: 73%
RIN-5AH cells
  divalent calcium cation influx (Fluo-4 AM fluorescence by FACS): induced divalent calcium cation influx; also recorded: induced Ca2+ influx

## COc1cc(Nc2cc(C#N)nc3c(F)cccc23)c(Cl)cc1Cl [Compound 19, 4-(2,4-dichloro-5-methoxy-anilino)-8-fluoro-quinoline-2-carbonitrile]
[1]
  activation at 5 µM: 70%

## COc1cc2c(Nc3ccc(Cl)cc3Cl)c(C#N)cnc2cc1OCCCN [Compound 20, 7-(3-aminopropoxy)-4-(2,4-dichloroanilino)-6-methoxy-quinoline-3-carbonitrile]
[1]
  activation at 5 µM: 67%

## COc1cc2c(Nc3c(Cl)cccc3Cl)cc(C#N)nc2cc1F [Compound 21, 4-(2,6-dichloroanilino)-7-fluoro-6-methoxy-quinoline-2-carbonitrile]
[1]
  activation at 5 µM: 65%

## COc1cc(Nc2cc(C#N)nc3c(C(F)(F)F)cccc23)c(Cl)cc1Cl [Compound 22, 4-(2,4-dichloro-5-methoxy-anilino)-8-(trifluoromethyl)quinoline-2-carbonitrile]
[1]
  activation at 5 µM: 58%

## CN(C)Cc1cc(Nc2cc(C#N)nc3cc(F)ccc23)c(Cl)cc1Cl [Compound 23, 4-[2,4-dichloro-5-(dimethylaminomethyl)anilino]-7-fluoro-quinoline-2-carbonitrile]
[1]
  activation at 5 µM: 57%

## COc1cc2nccc(-c3cccc(Nc4cc(C#N)nc5c(F)cccc45)c3)c2cc1OC [Compound 24, 4-[3-(6,7-dimethoxy-4-quinolyl)anilino]-8-fluoro-quinoline-2-carbonitrile]
[1]
  activation at 5 µM: 57%

## CN(C)C(=O)c1cc(Nc2cc(C#N)nc3c(F)cccc23)c(Cl)cc1Cl [Compound 25, 2,4-dichloro-5-[(2-cyano-8-fluoro-4-quinolyl)amino]-N,N-dimethyl-benzamide]
[1]
  activation at 5 µM: 48%

## COc1cc2c(Oc3ccc(NS(=O)(=O)c4cccc(-c5ccccc5)c4)cc3F)ccnc2cc1OCCCN1CCOCC1 [Compound 26, N-[3-fluoro-4-[[6-methoxy-7-(3-morpholinopropoxy)-4-quinolyl]oxy]phenyl]-3-phenyl-benzenesulfonamide]
[1]
  activation at 5 µM: 47%

## COc1cc2nccc(-c3cccc(Nc4cc(C(N)=O)nc5c(F)cccc45)c3)c2cc1OC [Compound 27, 4-[3-(6,7-dimethoxy-4-quinolyl)anilino]-8-fluoro-quinoline-2-carboxamide]
[1]
  activation at 5 µM: 46%

## CN(C)C(=O)c1cc(Nc2cc(C#N)nc3cc(F)ccc23)c(Cl)cc1Cl [Compound 28, 2,4-dichloro-5-[(2-cyano-7-fluoro-4-quinolyl)amino]-N,N-dimethyl-benzamide]
[1]
  activation at 5 µM: 45%

## N#Cc1cc(Nc2c(Cl)cccc2Cl)c2cc(F)ccc2n1 [Compound 29, 4-(2,6-dichloroanilino)-6-fluoro-quinoline-2-carbonitrile]
[1]
  activation at 5 µM: 41%

## COc1cc(Nc2cc(C#N)nc3cc(F)c(OCCCN4C(=O)c5ccccc5C4=O)cc23)c(Cl)cc1Cl [Compound 63, 4-(2,4-dichloro-5-methoxy-anilino)-6-[3-(1,3-dioxoisoindolin-2-yl)propoxy]-7-fluoro-quinoline-2-carbonitrile]
[1]; negative control quinoline compounds
  effect on insulin secretion: didn't show any effect
RIN-5AH cells
  divalent calcium cation influx (Fluo-4 AM fluorescence by FACS): did not show any increase

## COc1cc2c(Nc3cc(OC)c(Cl)cc3Cl)cc(C#N)nc2cc1F [Compound 75, 4-(2,4-dichloro-5-methoxy-anilino)-7-fluoro-6-methoxy-quinoline-2-carbonitrile]
[1]
  activation at 5 µM: 116%
